Assays:
pepsin = experiment: Proteolysis of hPTH(1-34) by pepsin at various pH values; type: in vitro ADME; conditions: 13.5 μg/ml hPTH(1-34), 150 μg/ml pepsin, 37° C., media pH 2-7
Description: The effect of pH on peptide proteolysis by pepsin was determined by incubating 13.5 μg/ml human parathyroid hormone (1-34) (hPTH(1-34)) with 150 μg/ml pepsin, at various pH values, and determining the percentage of hPTH(1-34) which remained. The amount of hPTH(1-34) remaining upon addition to 150 μg/ml pepsin at 37° C., was determined in media with different pH values, followed by immediate (10 second) vortex and centrifugation for 3 minutes at 4° C., 4000 RCF. The following media were used: simulated gastric fluid (pH 2), prepared from 0.01 M HCl and NaCl; phthalate buffer (pH 4 or 5); and phosphate buffer (pH 6 or 7).

[1] = pH upon addition of test substance to 0.1 M HCl solution (pH 1.2), pH meter; type: physicochemical
Description: The solution pH was determined using an MP-103 pH-meter (MRC, Israel) equipped with ELC-10-00 electrode (MRC, Israel) or with a thin electrode HI1083 (HANNA instruments Inc.), shortly after dissolution and up to 26 hours later in order to ensure that the pH remained stable. The highest pH value obtained during the experimental time period was recorded in order to compare the acid-neutralizing capacity of each substance.
SNAC and the basic polymers sodium alginate, sodium carboxymethylcellulose in non-crosslinked (Na-CMC) and crosslinked (croscarmellose sodium, CCS) forms, and sodium starch glycolate (SSG) were dissolved in various volumes of 0.1 M HCl solution (pH 1.2) at concentrations of 1, 2, 4, 10, 20, 50, 100 and 150 mg/ml, and the solution pH was determined using an MP-103 pH-meter (MRC, Israel) equipped with ELC-10-00 electrode (MRC, Israel), as described in the Materials and Methods section hereinabove.
In order to obtain a beneficial rise in pH with a reduced loss of the active form of the absorption enhancer, the effect of various concentrations of different polymers containing carboxylate groups (sodium alginate, sodium starch glycolate, sodium carboxymethylcellulose, and croscarmellose sodium) on pH upon addition to a 0.1 M HCl solution (pH 1.2) was also evaluated. FIG. 3A presents pH values determined using an MP-103 pH-meter (MRC, Israel) equipped with ELC-10-00 electrode (MRC, Israel) and FIG. 3B presents pH values determined using an MP-103 pH-meter (MRC, Israel) equipped with a thin electrode HI1083 (HANNA instruments Inc.).

Row | pH at which proteolysis of hPTH(1-34) by pepsin was inhibited (pepsin) | pH 5 minutes after dissolution ([1]; 10 mg/ml SNAC added to HCl solution (pH 1.2)) | pH 5 minutes after dissolution ([1]; 20 mg/ml SNAC added to HCl solution (pH 1.2)) | pH 5 minutes after dissolution ([1]; 100 mg/ml SNAC added to HCl solution (pH 1.2)) | dissolution upon addition to HCl solution ([1]; HCl solution (pH 1.2)) | Compound
1 | ≥ 6 |  |  |  |  | CC[C@H](C)[C@H](NC(=O)[C@H](CCC(=O)O)NC(=O)[C@H](CO)NC(=O)[C@@H](NC(=O)[C@@H](N)CO)C(C)C)C(=O)N[C@@H](CCC(N)=O)C(=O)N[C@@H](CC(C)C)C(=O)N[C@@H](CCSC)C(=O)N[C@@H](Cc1cnc[nH]1)C(=O)N[C@@H](CC(N)=O)C(=O)N[C@@H](CC(C)C)C(=O)NCC(=O)N[C@@H](CCCCN)C(=O)N[C@@H](Cc1cnc[nH]1)C(=O)N[C@@H](CC(C)C)C(=O)N[C@@H](CC(N)=O)C(=O)N[C@@H](CO)C(=O)N[C@@H](CCSC)C(=O)N[C@@H](CCC(=O)O)C(=O)N[C@@H](CCCN=C(N)N)C(=O)N[C@H](C(=O)N[C@@H](CCC(=O)O)C(=O)N[C@@H](Cc1c[nH]c2ccccc12)C(=O)N[C@@H](CC(C)C)C(=O)N[C@@H](CCCN=C(N)N)C(=O)N[C@@H](CCCCN)C(=O)N[C@@H](CCCCN)C(=O)N[C@@H](CC(C)C)C(=O)N[C@@H](CCC(N)=O)C(=O)N[C@@H](CC(=O)O)C(=O)N[C@H](C(=O)N[C@@H](Cc1cnc[nH]1)C(=O)N[C@@H](CC(N)=O)C(=O)N[C@@H](Cc1ccccc1)C(=O)O)C(C)C)C(C)C [hPTH(1-34), teriparatide]
2 |  | about 1.5 | 6.5 | about 7.5 | dissolved rapidly | O=C(O)CCCCCCCNC(=O)c1ccccc1O [SNAC, sodium 8-N-(2-hydroxybenzoyl)aminocaprylate]

Reference: patent US20260124281A1, “FORMULATIONS COMPRISING ACID-NEUTRALIZING POLYMER FOR ORAL ADMINISTRATION OF PARATHYROID HORMONE” (Entera Bio Ltd., priority 2022, published 2026)
